The results in this text go back to patent publication US10578610B2, “Peptide regulators of mitochondrial fusion and methods of use” (priority 2016, dated 2020).

Like-named read-outs stand apart in the source and are kept apart here. Ends that are not written are not given here.

What all share (format): cell-based, murine
For one test, the system named is WT MEFs. The settings on record: for mitochondrial aspect ratio (effect of TAT fusion construct): WT MEFs, varying concentrations / time course; for EC50: mitochondrial aspect ratio dose response; for EC50 / half-time for mitochondrial shape change: MEFs; for half-time for mitochondrial shape change: time course. The method, then:
MEFs or neurons were grown on chamber slides and infected with recombinant adenoviri for 48-72 hours unless otherwise indicated. MEFs were stained with MitoTracker Green (200 nM, Invitrogen M7514) and Blue Hoechst (10 mg/ml, Invitrogen H3570), with or without tetramethylrhodamine ethyl ester (TMRE; 200 nM, Invitrogen T-669). Neuronal mitochondria were labeled with adenoviral-expressed mitoGFP plus TMRE, or with adeno-mitoDsRed for time-lapse studies. Cover slips were loaded onto a chamber (Warner instrument, RC-40LP) in modified Krebs-Henseleit buffer (138 mM NaCl, 3.7 mM KCl, 1.2 mM KH2PO4, 15 mM Glucose, 20 mM HEPES and 1 mM CaCl2) at room temperature and visualized on a Nikon Ti Confocal microscope equipped with a 60×1.3 NA oil immersion objective. For mitophagy studies MEFs were stained with MitoTracker Green and infected with adeno-mcherry Parkin or stained with LysoTracker Deep Red (50 nM, Invitrogen L-7528); carbonylcyanide p-trifluoromethoxyphenylhydrazone (FCCP, 10 μM for 1 hour) was applied as a positive control. Mitochondrial fusion was measured at 2 and 6 hours after PEG-mediated cell fusion of MEFs treated 48 hours previously with adeno-mitoGFP or adeno-mitoDsRed (Chen et al., 2005, J Biol Chem, 280:26185-26192). Laser confocal fluorescence was excited with 561 nm (MitoTracker Green, GFP, FITC), 637 nm (TMRE, LysoTracker Red, mcherry-Parkin, MitoTracker Orange) or 408 nm (Blue Hoechst) laser diodes. Image analysis—Mitochondrial aspect ratio was calculated using automated edge detection and Image J software (Song et al., 2015, Cell Metab, 21:273-285). Mitochondrial depolarization was calculated as % of green mitochondria visualized on MitoTracker Green and TMRE merged images, expressed as green/(green+yellow mitochondria)×100. Parkin aggregation was calculated as % of cells with mitochondrial clumping of mcherry-Parkin (Song et al., 2015, Cell Metab, 21:273-285). Lysosomal engulfment of mitochondria was identified by colocalization of LysoTracker Red and MitoTracker Green (Song et al., 2015, Cell Metab, 21:273-285).
TAT47-57 is a well-characterized “carrier” peptide able to promote active cellular peptide uptake. Specifically, a linear peptide was constructed in which the hMfn2 modulatory peptide was linked by a peptide bond at its C-terminus to a Gly-Gly dipeptide linker whose C-terminus was linked by a peptide bond to the TAT47-57 peptide having the sequence YGRKKRRQRRR (SEQ ID NO:25). The resultant linear fusion-promoting peptide conjugate comprises the sequence […] (SEQ ID NO:23). The fusion-inhibiting linear peptide has the sequence […] (SEQ ID NO:24). Except for dose-response studies, stock concentrations of TAT-minipeptides in sterile water were applied to cultured MEFs at a dilution factor of 1:2000 to achieve final concentrations of 1 or 5 μM.
The functional consequences of the Mfn2 HR1-derived peptides were defined after synthesizing them as C-terminal TAT47-57 conjugates to promote active cellular uptake. Mitochondrial fusion can be detected by mixing of organellar contents (Chen et al., 2005, J Biol Chem, 280:26185-26192). […] (FIG. 8A, scale bar is 20 microns). Mitochondrial aspect ratio changed in parallel with mitochondrial mixing (FIG. 8B).
Experiments were performed with these shortened variants fused to a carrier peptide via a linker according to the methods described in Example 5 above. Wildtype MEFs were treated with varying concentrations of peptide fusion constructs described in Table 4 and mitochondrial aspect ratios determined. A dose response curve for TetherX-N and -C variants are shown in FIG. 17A (squares are data for TetherX-N and circles are for TetherX-C). The dose response curve for GoFuse-N and -C variants are shown in FIG. 17B (squares are for GoFuse-N and circles are for GoFuse-C).

Another test deals with Opa1 and Drp1. The test can be described thus: Immunoblot analysis of mitochondrial dynamics proteins in MEFs. The settings on record: immunoblot 4 hours after application to MEFs; data not shown. A general note: In western blotting, separated proteins are transferred to a membrane and probed.
The test system of the next test is Mfn2 T105M fl/st MEFs. The test can be described thus: TAT-minipeptides in MEFs expressing CMT2A mutant hMfn2 T105M. The settings on record: for mitochondrial fragmentation / dysmorphology / mitochondrial polarization / depolarization: Mfn2 T105M MEFs, 72 hours after adeno-Cre, 1 μM. As for the experimental part:
Wild-type murine embryonic fibroblast cells (MEFs) were prepared from E10.5 C57/b6 mouse embryos. SV-40 T antigen-immortalized Mfn1 null (“Mfn1 KO,” ATCC No. CRL-2992), Mfn2 null (“Mfn2 KO,” ATCC No. CRL-2993) and Mfn1/Mfn2 double null MEFs (“Mfn DKO,” ATCC No. CRL-2994) were purchased from ATCC. MEFs conditionally expressing the human Mfn2 T105M mutation were prepared from E10.5 embryos of C57BL/6-Gt(ROSA)26Sor[tm1(CAG-MFN2*T105M)Dple]/J mice purchased from The Jackson Laboratory (Stock No: 025322). MEFs were maintained in DMEM containing 4.5 g/L glucose (or galactose when specified) supplemented with 10% fetal bovine serum, 1× nonessential amino acids, 2 mM L-glutamine, 100 U/ml penicillin and 100 μg/ml streptomycin.
Models cells harboring a Cre recombinase-inducible mutant human Mfn2 containing the T105M mutation were used (FIG. 13A) because they recapitulate fusion defects caused by compound functional null Mfn2 mutants in […] CMT2A. A time course study of mitochondrial fragmentation after adeno-Cre mediated induction of Mfn2 T105M was performed and the results are shown in FIG. 13B.
It was considered that mitochondrial dysmorphology created by genetic Mfn2 dysfunction in CMT2A might be improved by TAT-367-384Gly if endogenous normal Mfn1 or Mfn2 proteins could be compelled into their active unfolded conformations, thus overcoming dominant inhibition by GTPase Mfn2 mutants. This was tested in MEFs expressing the CMT2A-causal mutant hMfn2 T105M (Calvo et al., 2009, Arch Neurol, 66:1511-1516; Detmer et al., 2008, Hum Mol Genet, 17:367-375) as a conditional flox/stop (fl/st) transgene. […] Parallel adenoviral expression of WT Mfn2 at more than twice the levels of Mfn2 T105M (5-fold vs 2-fold) provoked neither mitochondrial nor cellular toxicity (data not shown). Scale bars are 10 microns. N=3 or 4; *=P<0.05 vs. control, #=P<0.05 vs. Ad-Cre (ANOVA).

By EC50 is commonly meant the concentration at which the effect is half-maximal. Regarding “QIAEAVRGIMDSLHMAARGGYGRKKRRQRRR [TAT-367-384Gly]”, in the test with WT MEFs, the “mitochondrial aspect ratio (effect of TAT fusion construct)” value is listed as “increased the mitochondrial aspect ratio” and the “half-time for mitochondrial shape change” value is given as “approximately 2 hours”. For the same sequence, the EC50 with WT MEFs (read-out: EC50 for mitochondrial elongation (enhanced fusion)) came to 0.28 ± 0.09 µM. In the test with Opa1 and Drp1, the “abundance of Opa1 and Drp1” value was “without altering Mfn2 GTPase activity or influencing the abundance”. Besides, in the test on Mfn2 T105M fl/st MEFs, the “mitochondrial fragmentation / dysmorphology” value is “rapidly reversed mitochondrial fragmentation” and the “mitochondrial polarization / depolarization” value was “improved mitochondrial polarization”. Further, the mitochondrial clumping result in the test on Mfn2 T105M fl/st MEFs (cells expressing Mfn2 T105M) is recorded as “corrected mitochondrial clumping”.
In the case of “QDRLKFIDKQGELLAQDYKLRGGYGRKKRRQRRR [TAT-398-418Gly]”, in the test with WT MEFs, the “mitochondrial aspect ratio (effect of TAT fusion construct)” value is “decreased mitochondrial aspect ratio” and the “half-time for mitochondrial shape change” value is listed as “approximately 2 hours”. Moreover, in the test with WT MEFs (read-out: EC50 for mitochondrial shortening (suppressed fusion)), the half-maximal effective concentration (EC50) was found to be 0.25 ± 0.09 µM. In addition, the “abundance of Opa1 and Drp1” value with Opa1 and Drp1 is “without altering Mfn2 GTPase activity or influencing the abundance”. Besides, in the test with Mfn2 T105M fl/st MEFs, the “mitochondrial fragmentation / dysmorphology” value is listed as “aggravated mitochondrial dysmorphology” and the “mitochondrial polarization / depolarization” value was “exacerbated mitochondrial depolarization”.
